Experimental data reported in patent publication US20250040548A1, “Herbicidal compositions comprising saflufenacil” (BASF SF, priority 2023, published 2025).

What was measured:
SETFA = assay: Post-emergence application in greenhouse trials; format: in vivo, Setaria faberi; settings: 7 DAT, growth stage 13, 1% MSO
Experimental: (§1) In the examples below, using the method of S. R. Colby (1967) “Calculating synergistic and antagonistic responses of herbicide combinations”, Weeds 15, p. 22ff., the value E, which is expected if the activity of the individual active compounds is only additive, was calculated.
(§2) [formula] • where • X=percent activity using active herbicide A at an application rate a; • Y=percent activity using active saflufenacil at an application rate b; • E=expected activity (in %) by A+B at application rates a+b.
(§3) If the value found experimentally is higher than the value E calculated according to Colby, a synergistic effect is present.
(§4) The culture containers used were plastic pots containing loamy sand with approximately 3.0% of humus as substrate. The seeds of the test plants were sown separately for each species.
(§5) For the post-emergence treatment, the test plants were grown to a plant height of from 3 to 15 cm, depending on the plant habit, and only then treated with the active compounds which had been suspended or emulsified in water. To this end, the test plants were either sown directly, and grown in the same containers, or they were first grown separately as seedlings and transplanted into the test containers a few days prior to treatment.
(§6) Depending on the species, the plants were kept at 10-25° C. and 20-35° C., respectively.
(§7) The test period extended over 2 to 4 weeks. During this time, the plants were tended and their response to the individual treatments was evaluated.
(§8) Evaluation was carried out using a scale from 0 to 100. 100 means no emergence of the plants, or complete destruction of at least the above-ground parts, and 0 means no damage or normal course of growth. A good herbicidal activity is given at values of at least 70, and very good herbicidal activity is given at values of at least 85.
(§9) Unless indicated otherwise, herbicide A and saflufenacil were formulated (50 g/I) and applied with addition of 1% MSO (methylated seed oil) as adjuvant. In the greenhouse trials, the solvent used was water (200 I/ha).

BRADC = assay: Post-emergence application in field trials (Examples 2 and 3); format: in vivo, Brachiaria decumbens; settings: growth stage 22-23, height 32-38 cm, B-1 solo 25 g ai/ha, 21 DAT, 1% Dash ® HC
Experimental: as §1, §2, §3
(§10) On field test sites, natural weed infestation or seeded weeds were treated post-emergence of the weeds.
(§11) For the post emergence treatment, the weedy plants were treated as indicated below. The herbicidal compositions were, together with the adjuvant(s) as indicated, suspended or emulsified in water (200 l/ha unless indicated otherwise) as distribution medium and sprayed with commercial flat fan nozzles.
(§12) In the following experiments, the herbicidal activity for the individual herbicidal compositions (solo and mixture applications) was assessed the indicated days after treatment (DAT). The assessments for the damage on undesired weeds caused by the composition was carried out using a scale from 0 to 100%, compared to the untreated control plants. Here, 0 means no damage and 100 means complete destruction of the plants.
as §11, with “I/ha” for “l/ha”

COMBE = assay: Post-emergence application in greenhouse trials; format: in vivo, Commelina benghalensis; settings: growth stage 21, 1% MSO
Experimental: as §1, §2, §3, §4, §5, §6, §7, §8, §9

ELEIN [1] = assay: Post-emergence application in field trials (Examples 2 and 3); format: in vivo, Eleusine indica
Experimental: as §1, §2, §3, §10, §11, §12
as §11, with “I/ha” for “l/ha”

LAMAN = assay: as above; format: in vivo, Lamium amplexicaule; settings: height 3-18 cm, B-1 solo 25 g ai/ha, 21 DAT, 1% v/v MSO and 1% AMS (ammonium sulfate)
Experimental: as §1, §2, §3, §10, §11
as §12, with “Here, 0 means no damage and 100 means complete destruction of the plants.” left out

[2] = tested on: ZEAMX* (non-PPOi herbicide tolerant); assay: as above; format: in vivo, Zea mays; settings: B-1 25 g ai/ha, 21 DAT
Experimental: as §1, §2, §3, §10, §11, §12
as §11, with “I/ha” for “l/ha”

EPHHL = assay: as above; format: in vivo, Euphorbia heterophylla; settings: B-1 25 g ai/ha, 21 DAT, growth stage 12-16, height 5-15 cm, 0.5% MSO
Experimental: as §1, §2, §3, §10, §11
as §12, with “Here, 0 means no damage and 100 means complete destruction of the plants.” left out

ECHCG = assay: as above; format: in vivo, Echinocloa crus-galli
Experimental: as §1, §2, §3, §10, §11, §12
as §11, with “I/ha” for “l/ha”

ERICA = assay: as above; format: in vivo, Erigeron canadensis; settings: 21 DAT
Experimental: as §1, §2, §3, §10, §11, §12
as §11, with “I/ha” for “l/ha”

ELEIN [3] = assay: Post-emergence application in greenhouse trials; format: in vivo, Eleusine indica; settings: B-1 3.12 g ai/ha, 21 DAT, growth stage 21, saflufenacil as commercial 342 g/l SC formulation
Experimental: as §1, §2, §3, §4
as §5, with “treatment. […]” for “treatment.”
The test period extended over 2 to 4 weeks. During this time, the plants were tended and their response to the individual treatments was evaluated. […]

AMATA = assay: Post-emergence application in greenhouse trials; format: in vivo, Amaranthus tamariscinus; settings: 20 DAT, growth stage 14, 1% MSO
Experimental: as §1, §2, §3, §4, §5, §6, §7, §8, §9

STEME = assay: Post-emergence application in field trials (Examples 2 and 3); format: in vivo, Stellaria media; settings: B-1 12.5 g ai/ha, 21 DAT, growth stage 63-67, height 7-18 cm, 140 l/ha water, 1% MSO + 2.5% ammoniumsulfate
Experimental: as §1, §2, §3, §10, §11
as §12, with “Here, 0 means no damage and 100 means complete destruction of the plants.” left out

DIGSA = assay: as above; format: in vivo, Digitaria sanguinales
Experimental: as §1, §2, §3, §10, §11, §12
as §11, with “I/ha” for “l/ha”

[4] = tested on: HORVS* (non-PPOi herbicide tolerant); assay: as above; format: in vivo, Hordeum vulgare; settings: 1% v/v MSO
Experimental: as §1, §2, §3, §10, §11, §12
as §11, with “I/ha” for “l/ha”

In the case of CC(C)N(C)S(=O)(=O)NC(=O)c1cc(-n2c(=O)cc(C(F)(F)F)n(C)c2=O)c(F)cc1Cl [B-1, saflufenacil], the “% Herbicidal activity” value (SETFA; B-1 0.5 g ai/ha) is reported as 10%, the “% Herbicidal activity” value (SETFA; B-1 0.8 g ai/ha) is reported as 15% and the “% Herbicidal activity” value (SETFA; B-1 0.9 g ai/ha) is reported as 15%. For the same molecule, the “% Herbicidal activity” value (SETFA; B-1 1.1 g ai/ha) was 35%, the “% Herbicidal activity” value (BRADC) was 12% and the “% Herbicidal activity” value (COMBE; B-1 0.2 g ai/ha, 6 DAT) was 15%. The “% Herbicidal activity” value (COMBE; B-1 0.2 g ai/ha, 20 DAT) was 5%, the “% Herbicidal activity” value (COMBE; B-1 0.8 g ai/ha, 20 DAT) was 75% and the “% Herbicidal activity” value (ELEIN [1]; B-1 12.5 g ai/ha, 21 DAT, height 1-15 cm, 140 l/ha water, 1% MSO + 2.5% ammoniumsulfate) was 19%. The “% Herbicidal activity” value (ELEIN [1]; B-1 25 g ai/ha, 19 DAT, growth stage 24, 0.5% MSO) was 0%, the “% Herbicidal activity” value (ELEIN [1]; B-1 25 g ai/ha, 21 DAT, height 7-10 cm, 1% v/v MSO and 1% w/v ammoniumsulfate) was 0% and the “% Herbicidal activity” value (ELEIN [1]; B-1 25 g ai/ha, 21 DAT, height 15-20 cm, 1% v/v MSO and 1% w/v ammoniumsulfate) was 0%. For the same molecule, the “% Herbicidal activity” value (LAMAN) was 40%, the “% Herbicidal activity” value ([2]; growth stage 15, 1% v/v MSO and 1% w/v ammoniumsulfate) was 15% and the “% Herbicidal activity” value ([2]; growth stage 18, 0.5% MSO) was 0%. For the same molecule, the “% Herbicidal activity” value (EPHHL) was 5%, the “% Herbicidal activity” value (ECHCG; B-1 12.5 g ai/ha, 14 DAT, growth stage 14-19, height 2-8 cm, field, 140 l/ha water, 1% MSO + 2.5% ammoniumsulfate) was 40% and the “% Herbicidal activity” value (ECHCG; B-1 25 g ai/ha, 21 DAT, height 12.5-30 cm, field, 1% v/v MSO and 1% w/v ammoniumsulfate) was 23%. For the same molecule, the “% Herbicidal activity” value (ECHCG; ECHCG, growth stage 21-23, height 43-44 cm, B-1 solo 25 g ai/ha, 21 DAT, 1% Dash ® HC) was 27%, the “% Herbicidal activity” value (ERICA; B-1 6.25 g ai/ha, height 12.5-25 cm, field, 140 l/ha water, 1% MSO + 2.5% ammoniumsulfate) was 40% and the “% Herbicidal activity” value (ERICA; B-1 12.5 g ai/ha, height 12.5-25 cm, field, 140 l/ha water, 1% MSO + 2.5% ammoniumsulfate) was 73%. For the same molecule, the “% Herbicidal activity” value (ERICA; ERICA, height 5-10 cm, B-1 solo 25 g ai/ha, 1% v/v MSO and 1% AMS (ammonium sulfate)) was 90%, the “% Herbicidal activity” value (ELEIN [3]) was 30% and the “% Herbicidal activity” value (AMATA; B-1 0.2 g ai/ha) was 70%. The “% Herbicidal activity” value (AMATA; B-1 0.3 g ai/ha) was 85%, the “% Herbicidal activity” value (STEME) was 53% and the “% Herbicidal activity” value (DIGSA; B-1 12.5 g ai/ha, 21 DAT, height 3-12 cm, 140 l/ha water, 1% MSO + 2.5% ammoniumsulfate) was 20%. For the same molecule, the “% Herbicidal activity” value (DIGSA; B-1 25 g ai/ha, 19 DAT, growth stage 13-19, height 2.5-7.5 cm, 1% v/v MSO and 1% w/v ammoniumsulfate) was 23%, the “% Herbicidal activity” value ([4]; B-1 18 g ai/ha, 29 DAT, growth stage 15-24, height 25-45 cm, field, 100 l/ha water) was 0% and the “% Herbicidal activity” value ([4]; HORVS* (non-PPOi herbicide tolerant), growth stage 15, height 31-43 cm, B-1 solo 25 g ai/ha, 16 DAT) was 3%.
